According to US5272136A, “5-0-α-D-Glucopyranosyl-L-ascorbic acid, and its preparation and uses” (priority 1991, dated 1993):
One block for each compound: values may come before it.

Columns and labels:
[1] = physchem; type: physicochemical; settings: for Stability, residual percentage: 0 min, 70 uM; for remaining at 21 h, 70 µM / remaining at 0.5 h, 70 µM / remaining at 1 h, 70 µM / remaining at 0.25 h, 70 µM: aqueous solution
Experimental: (h) Stability: The stability of the substance X was compared with L-ascorbic acid as a control. Each specimen was adjusted to give a concentration of 70 μM and to pH 7.0 or pH 2.0, and the resultant each solution was placed in a cell for an absorption spectrophotometer. The cell was set to the absorption spectrophotometer and kept at 20° C., followed by determining at a prescribed time interval an absorbance at 265 nm with the solution of pH 7.0 and an absorbance at 243 nm with the solution of pH 2.0, and comparing the residual percentage (%) of each specimen.

[2] = tested on: enzyme of a small intestinal membrane; assay: Hydrolysis by enzyme of small intestinal membrane; type: in vitro ADME; settings: method of Okada et al.
[3] = tested on: 7 week-old dd mice; assay: Acute toxicity test, oral; type: in vivo; settings: up to 5 g of the specimen, a higher dose was difficult
Excerpt: A high-purity 5-O-α-D-glucopyranosyl-L-ascorbic acid, prepared by the method in Experiment 1, was orally administered to 7 week-old dd mice for acute toxicity test. As a result, no mouse died when administered with up to 5 g of the specimen, and a higher dose was difficult.

[4] = Solubility in solvents; type: physicochemical
[5] = Coloring reaction / direct reducing activity; type: physicochemical
[6] = Hydrolysis under a relatively-high acidic- and temperature-condition; type: physicochemical; settings: relative to the substances X and Y; pH 1.7, 100° C.
Experimental: Thus, we removed 2-O-α-D-glucopyranosyl-L-ascorbic acid by using this hydrolysis.
The method was as follows: The second mother liquor was adjusted to give a concentration of 25%, adjusted to pH 1.7 by the addition of hydrochloric acid, and allowed to predominantly hydrolyze 2-O-α-D-glucopyranosyl-L-ascorbic acid at 100° C. Thereafter, the resultant solution was cooled and fed to a column packed with an anion exchange resin (OH^- -form) to adsorb the substances X and Y thereon, and the column was washed with water and fed with 0.5N hydrochloric acid to obtain a solution containing the substances X and Y.

- Stability, residual percentage ([1]; pH 2): 100%
- Stability, residual percentage ([1]; pH 7): 100%
- remaining at 21 h, 70 µM ([1]; pH 2): 10%
- remaining at 0.5 h, 70 µM ([1]; pH 7): 20%
- remaining at 1 h, 70 µM ([1]; pH 7): 8%
- remaining at 21 h, 70 µM ([1]; pH 7): 2%
SMILES: O=C1O[C@H]([C@@H](O)CO)C(O)=C1O [AsA, L-ascorbic acid]

- Hydrolysis by enzyme of small intestinal membrane [2]: not substantially hydrolyzed
SMILES: O=C1O[C@H]([C@@H](O)CO[C@H]2O[C@H](CO)[C@@H](O)[C@H](O)[C@H]2O)C(O)=C1O [substance Y, 6-O-α-D-glucopyranosyl-L-ascorbic acid, reference compound]

SMILES: O=C1O[C@H]([C@H](CO)O[C@H]2O[C@H](CO)[C@@H](O)[C@H](O)[C@H]2O)C(O)=C1O [substance X, 5-O-α-D-glucopyranosyl-L-ascorbic acid]
- Hydrolysis by enzyme of small intestinal membrane [2]: readily hydrolyzed
- Acute toxicity, mortality [3]: no mouse died
- Solubility in 0.1M acetic acid ([4]; 0.1M acetic acid): readily soluble
- Solubility in 0.1N sodium hydroxide ([4]; 0.1N sodium hydroxide): readily soluble
- Solubility in benzene ([4]; benzene): insoluble
- Solubility in chloroform ([4]; chloroform): insoluble
- Solubility in ethanol ([4]; ethanol): slightly soluble
- Solubility in ether ([4]; ether): insoluble
- Solubility in methanol ([4]; methanol): slightly soluble
- Solubility in water ([4]; water): readily soluble
- Stability compared with L-ascorbic acid [1]: stabler than L-ascorbic acid
- Stability, residual percentage ([1]; pH 2): 100%
- Stability, residual percentage ([1]; pH 7): 100%
- remaining at 0.25 h, 70 µM ([1]; pH 2): 99%
- remaining at 0.5 h, 70 µM ([1]; pH 2): 98%
- remaining at 1 h, 70 µM ([1]; pH 2): 90%
- remaining at 21 h, 70 µM ([1]; pH 2): 50%
- remaining at 0.25 h, 70 µM ([1]; pH 7): 58%
- remaining at 0.5 h, 70 µM ([1]; pH 7): 35%
- remaining at 1 h, 70 µM ([1]; pH 7): 16%
- remaining at 21 h, 70 µM ([1]; pH 7): 6%
- Reducing activity (decoloring of 2,6-dichlorophenolindophenol) [5]: exhibits a reducing activity, and decolors 2,6-dichlorophenolindophenol

SMILES: O=C1O[C@H]([C@@H](O)CO)C(O)=C1O[C@H]1O[C@H](CO)[C@@H](O)[C@H](O)[C@H]1O [2-O-α-D-glucopyranosyl-L-ascorbic acid]
- Hydrolysis under relatively-high acidic- and temperature-condition [6]: more readily hydrolyzed than the substances X and Y
